Experimental data from patent US20250213533A1 (GH RESEARCH IRELAND LIMITED, priority 2022, published 2025).

Tested on: patients with postpartum depression (PPD)
Experiment: Clinical trial of inhaled 5-MeO-DMT (IDR) in postpartum depression; one patient so far, 6 mg then 12 mg
Settings: 1 patient
Description: The single-arm, open-label clinical trial will involve 15 adult female patients with clinically diagnosed postpartum depression (PPD).
The second dose (12 mg) will only be administered if: • a. […] The 6 mg dose was safe and well-tolerated according to the investigator, • c. Any psychoactive effects (PsE) of the prior dose have subsided, and • d. Pre-dose vital parameters and forced expiratory volume in one second (FEV1) are in normal range, or if outside of the normal range, are not clinically significant according to the investigator. • 3. Similarly, a third dose (18 mg) will only be administered if: • a. […] The 12 mg dose was safe and well-tolerated according to the investigator, and • c. Any PsE of the prior dose have subsided, and • d. Pre-dose vital parameters and forced expiratory volume in one second (FEV1) are in normal range, or if outside of the normal range, are not clinically significant according to the investigator.
The patients will be assessed for a peak psychedelic experience (based on a patient-scored visual analogue scale, the PE scale), sedation, and other endpoints after dosing. Follow-up visits are planned for Day 1, and Day 7 after the dosing day.
The following criteria must be met by all patients considered for clinical trial participation: • 1. Is female and in the age range between 18 and 45 years (inclusive) at screening. • 2. Has a body mass index (BMI) in the range of 18.5 and 35 kg/m^2 (inclusive) at screening. • 3. Meets the trial criteria for PPD as assessed by a trial psychiatrist or registered psychologist: • a. Diagnosis of Major Depressive Disorder without psychotic features, confirmed by the Mini-International Neuropsychiatric Interview (MINI), with peri-partum onset that began no earlier than gestation and no later than the first 4 weeks postpartum. • b. Has a Montgomery-Åsberg Depression Rating Scale (MADRS) total score of equal to or greater than 28 at screening and pre-dose on Day 0. • 6. […] Patients must have a negative pregnancy test at screening and on the pre-test day (Day −1). • 5. Is willing to delay start of other antidepressant or anxiety medication until after the end of the trial at Day 7 and agrees to keep any psychotherapy unchanged during the trial.
A potential patient who meets any of the following key exclusion criteria will be excluded from participation in this trial: • 1. Has, based on history, psychiatric assessment, and evaluation of the MINI, a current or prior diagnosis of bipolar disorder, a manic or hypomanic episode, a psychotic disorder, Major Depressive Disorder (MDD) or other mood disorder with psychotic features, obsessive compulsive disorder, post-traumatic stress disorder (PTSD), autism spectrum disorder, borderline personality disorder, schizophrenia, delusional disorder, paranoid personality disorder, schizoaffective disorder, clinically significant intellectual disability, or any other psychiatric comorbidity that renders the patient unsuitable for the trial according to the investigator's judgment. • 2. Has one or more first or second degree relatives with a current or previously diagnosed bipolar disorder, psychotic disorder or other mood disorder (including MDD) with psychotic features. • 3. Is in the judgement of a trial psychiatrist or registered psychologist, at significant risk for suicide based on history, psychiatric assessment, and evaluation of suicidal ideation and suicidal behaviour based on the Columbia-Suicide Severity Rating Scale (C-SSRS). • 4. Has taken anti-depressive medication within 14 days or 5 half-lives (whichever is longer) prior to dosing (exception: within the last 5 weeks in the case of fluoxetine). • 5.

COc1ccc2[nH]cc(CCN(C)C)c2c1 [5-MeO-DMT]
ECG (3 hours), safety laboratory analyses (7 days), CADSS (3 hours, 1 day, 7 days): unremarkable | standard criteria for MADRS remission (total score equal or less than 10): fulfilled | standard criteria for MADRS response (at least 50% improvement from baseline): fulfilled | time to clinical response after administration: ≤ 2 h | tolerability of the inhalation procedure: well tolerated with no inhalation-related adverse events | MADRS Apparent sadness improvement (2hr): 5 | MADRS Apparent sadness score (2hr): 0 | MADRS Concentration Difficulties improvement (2hr): 0 | MADRS Concentration Difficulties score (2hr): 0 | MADRS Inability to Feel improvement (2hr): 3 | MADRS Inability to Feel score (2hr): 0 | MADRS Inner Tension improvement (2hr): 5 | MADRS Inner Tension score (2hr): 0 | MADRS Lassitude improvement (2hr): 3 | MADRS Lassitude score (2hr): 0 | MADRS Pessimistic Thoughts improvement (2hr): 4 | MADRS Pessimistic Thoughts score (2hr): 0 | MADRS Reduced Sleep improvement (2hr): 0 | MADRS Reduced Sleep score (2hr): 5 | MADRS Reduced appetite improvement (2hr): 0 | MADRS Reduced appetite score (2hr): 0 | MADRS Reported sadness improvement (2hr): 4 | MADRS Reported sadness score (2hr): 0 | MADRS Suicidal Thoughts improvement (2hr): 0 | MADRS Suicidal Thoughts score (2hr): 0 | BIMF TOTAL score (Day 0): 92 | BIMF item 1 (I am a good mother) score (Day 0): 6 | BIMF item 2 (I feel rested) score (Day 0): 0 | BIMF item 3 (comfortable with the way I've chosen to feed my baby) score (Day 0): 6 | BIMF item 4 (My baby and I understand each other) score (Day 0): 5 | BIMF item 5 (able to relax and enjoy time with my baby) score (Day 0): 5 | BIMF item 6 (people I can trust to care for my baby when I need a break) score (Day 0): 6 | BIMF item 8 (getting enough adult interaction) score (Day 0): 6 | BIMF item 9 (getting enough encouragement from other people) score (Day 0): 5 | BIMF item 10 (trust my own feelings (instincts) in taking care of my baby) score (Day 0): 5 | BIMF item 11 (take a little time each week to do something for myself) score (Day 0): 5 | BIMF item 12 (taking good care of my baby's physical needs) score (Day 0): 6 | BIMF item 13 (taking good care of my physical needs) score (Day 0): 4 | BIMF item 14 (good decisions about my baby's health and well being) score (Day 0): 6 | BIMF item 15 (My baby and I are getting into a routine) score (Day 0): 5 | BIMF item 16 (I worry about how other people judge me (as a mother)) score (Day 0): 3 | BIMF item 17 (able to take care of my baby and my other responsibilities) score (Day 0): 5 | BIMF item 18 (Anxiety or worry often interferes with my mothering ability) score (Day 0): 2 | BIMF item 19 (getting better at taking care of my baby) score (Day 0): 0 | BIMF item 20 (satisfied with the job I am doing as a new mother) score (Day 0): 6 | adverse events (cramping left abdominal pain, headache) (Day 0): mild, short-lasting and resolved spontaneously | BIMF functional domain Adjustment score (Day 0, maximum possible 12): 5 | BIMF functional domain Infant Care score (Day 0, maximum possible 12): 12 | BIMF functional domain Mother-Child Interaction score (Day 0, maximum possible 18): 15 | BIMF functional domain Self Care score (Day 0, maximum possible 18): 9 | BIMF functional domain Social Support score (Day 0, maximum possible 18): 17 | BIMF functional domain Management score (Day 0, maximum possible 36): 28 | BIMF functional domain Psychological Well-being score (Day 0, maximum possible 60): 44 | BPRS Anxiety improvement (Day 1): 6 | BPRS Anxiety score (Day 1): 1 | BPRS Blunted affect improvement (Day 1): 0 | BPRS Blunted affect score (Day 1): 1 | BPRS Conceptual disorganization improvement (Day 1): 0 | BPRS Conceptual disorganization score (Day 1): 1 | BPRS Depressive Mood improvement (Day 1): 5 | BPRS Depressive Mood score (Day 1): 1 | BPRS Disorientation improvement (Day 1): 0 | BPRS Disorientation score (Day 1): 1 | BPRS Emotional withdrawal improvement (Day 1): 4 | BPRS Emotional withdrawal score (Day 1): 1 | BPRS Excitement improvement (Day 1): 1 | BPRS Excitement score (Day 1): 1 | BPRS Grandiosity improvement (Day 1): 0 | BPRS Grandiosity score (Day 1): 1 | BPRS Guilt feelings improvement (Day 1): 5 | BPRS Guilt feelings score (Day 1): 1 | BPRS Hallucinatory behaviour improvement (Day 1): 0 | BPRS Hallucinatory behaviour score (Day 1): 1 | BPRS Hostility improvement (Day 1): 0 | BPRS Hostility score (Day 1): 1 | BPRS Mannerisms and Posturing improvement (Day 1): 0 | BPRS Mannerisms and Posturing score (Day 1): 1 | BPRS Motor retardation improvement (Day 1): 0 | BPRS Motor retardation score (Day 1): 1 | BPRS Somatic Concern improvement (Day 1): 5 | BPRS Somatic Concern score (Day 1): 1 | BPRS Suspiciousness improvement (Day 1): 0 | BPRS Suspiciousness score (Day 1): 1 | BPRS Tension score (Day 1): 1 | BPRS Uncooperativeness improvement (Day 1): 0 | BPRS Uncooperativeness score (Day 1): 1 | BPRS Unusual Thought Content improvement (Day 1): 0 | BPRS Unusual Thought Content score (Day 1): 1 | MADRS Apparent sadness improvement (Day 1): 5 | MADRS Apparent sadness score (Day 1): 0 | MADRS Concentration Difficulties improvement (Day 1): 0 | MADRS Concentration Difficulties score (Day 1): 0 | MADRS Inability to Feel improvement (Day 1): 3 | MADRS Inability to Feel score (Day 1): 0 | MADRS Inner Tension improvement (Day 1): 5 | MADRS Inner Tension score (Day 1): 0 | MADRS Lassitude improvement (Day 1): 3 | MADRS Lassitude score (Day 1): 0 | MADRS Pessimistic Thoughts improvement (Day 1): 4 | MADRS Pessimistic Thoughts score (Day 1): 0 | MADRS Reduced Sleep improvement (Day 1): 5 | MADRS Reduced Sleep score (Day 1): 0 | MADRS Reduced appetite improvement (Day 1): 0 | MADRS Reduced appetite score (Day 1): 0 | MADRS Reported sadness improvement (Day 1): 4 | MADRS Reported sadness score (Day 1): 0 | MADRS Suicidal Thoughts improvement (Day 1): 0 | MADRS Suicidal Thoughts score (Day 1): 0 | BIMF item 1 (I am a good mother) score (Day 7): 6 | BIMF item 2 (I feel rested) score (Day 7): 2 | BIMF item 3 (comfortable with the way I've chosen to feed my baby) score (Day 7): 6 | BIMF item 4 (My baby and I understand each other) score (Day 7): 5 | BIMF item 5 (able to relax and enjoy time with my baby) score (Day 7): 6 | BIMF item 6 (people I can trust to care for my baby when I need a break) score (Day 7): 6 | BIMF item 8 (getting enough adult interaction) score (Day 7): 6 | BIMF item 9 (getting enough encouragement from other people) score (Day 7): 6 | BIMF item 10 (trust my own feelings (instincts) in taking care of my baby) score (Day 7): 6
